Measurements reported in the NIST ThermoML archive (doi:10.1021/je301353z).
± gives the expanded uncertainty stated by the source.

Legend:
[1] = 101.33 kPa, Liquid; for speed of sound: Sing-around technique in a fixed-path interferometer; for mass density: Vibrating tube method
[2] = molar heat capacity at constant pressure; details: 101.33 kPa, Liquid, Small sample (50 mg) DSC

Compound | speed of sound ([1]; 293.15 K) [m/s] | mass density ([1]; 293.15 K) [kg/m3] | speed of sound ([1]; 298.15 K) [m/s] | mass density ([1]; 298.15 K) [kg/m3] | speed of sound ([1]; 303.15 K) [m/s] | mass density ([1]; 303.15 K) [kg/m3] | speed of sound ([1]; 308.15 K) [m/s] | mass density ([1]; 308.15 K) [kg/m3] | molar heat capacity at constant pressure ([2]; 293.15 K) [J/K/mol] | molar heat capacity at constant pressure ([2]; 298.15 K) [J/K/mol] | molar heat capacity at constant pressure ([2]; 303.15 K) [J/K/mol] | molar heat capacity at constant pressure ([2]; 308.15 K) [J/K/mol]
CCn1cc[n+](C)c1.F[B-](F)(F)F [1-ethyl-3-methylimidazolium tetrafluoroborate] | 1631 ± 2.1 | 1283.89 ± 1.7 | 1619.4 ± 2.1 | 1279.91 ± 1.7 | 1607.6 ± 2.1 | 1276.26 ± 1.7 | 1596.3 ± 2.1 | 1272.07 ± 1.7 | 303.41 ± 4.7 | 305.12 ± 4.7 | 306.81 ± 4.8 | 308.58 ± 4.8
c1ccncc1 [pyridine] | 1442 ± 1.2 | 983.195 ± 1 | 1417.8 ± 1.2 | 978.252 ± 1 | 1398 ± 1.2 | 973.228 ± 1 | 1377.1 ± 1.2 | 968.171 ± 1 | 130.49 ± 2 | 131.74 ± 2 | 132.71 ± 2.1 | 133.82 ± 2.1
CN1CCCC1=O [N-methylpyrrolidone] | 1565.5 ± 1.3 | 1033.23 ± 1 | 1546 ± 1.2 | 1028.23 ± 1 | 1527.2 ± 1.2 | 1023.46 ± 1 | 1507.4 ± 1.2 | 1018.66 ± 1 | 165.44 ± 2.6 | 166.22 ± 2.6 | 166.92 ± 2.6 | 167.21 ± 2.6
O=C1CCCN1 [2-pyrrolidinone] | 1650.1 ± 1.3 | 1111.28 ± 1 | 1633.9 ± 1.3 | 1107.15 ± 1 | 1617.1 ± 1.3 | 1103.02 ± 1 | 1601.8 ± 1.3 | 1098.9 ± 1 | 168.36 ± 2.6 | 169.55 ± 2.6 | 171.18 ± 2.6 | 172.37 ± 2.7
